One series relates to TNF-α. The series can be described thus: TNF-alpha level in esophagus tissue (ELISA), anti-inflammatory effect. As to conditions: 10 mg/kg; for inflammation inhibition ratio: calculated from TNF-alpha of test, control and normal groups; for TNF-alpha: esophagus tissue of reflux rats, normal group 120.3, control group 325.2. It is filed as in vivo, rat. On the procedure:
On the Lonicerae Flos extract, the Lonicerae Flos fraction, or a compound isolated from the fraction (3,5-di-O-caffeoylquinic acid or 4,5-di-O-caffeoylquinic acid), having a therapeutic effect in a rat model of gastroesophageal reflux disease, in order to measure an anti-inflammatory effect within esophagus tissue, a level of Tumor necrosis factor-alpha(TNF-α) playing an important role in inflammatory disease mechanism was measured within esophagus tissue of a rat (Nippon Rinsho, 68(5), 819-822, 2010). As a kit for this measurement, rat TNF-α ELISA kit (Cat No:88-7340, eBioscience) was used. Each of esophagus tissues of all test groups, obtained from <Experimental Example 1>was introduced into homogenizing buffer (10×)(pH 7.4: 1.15% KCl, 50 mM Tris-HCl, 1 mM EDTA), followed by grinding by a homogenizer. Then, after centrifugation at 3,000 rpm or more for 10 minutes, the homogenized tissue liquid (supernatant) was separated, and then stored in a deep freezer for the use in the experiment. After all antigen-antibody reactions were completed, the absorbency was measured by ELISA Reader (BIORAD) at 450 nm, and then the amount of TNF-α in esophagus tissue was expressed by using a reference curve of absorbency. The inflammation inhibition ratio (%) of a test material was calculated by the following equation. Also, the anti-inflammatory effect by the Lonicerae Flos extract in a rat model of gastroesophageal reflux disease is noted in Table 2.
Inflammation inhibition ratio (%)=1−((test group-normal group)/(control group-normal group))×100

In series [1] the test system is lipid peroxidation of esophagus tissue. As to the kind of experiment: Lipid peroxide (malondialdehyde) of esophagus tissue in rat model of gastroesophageal reflux disease. As to conditions: esophagus mucous membrane from Experimental Example 1 (10 mg/kg oral); malondialdehyde by TBA, 532 nm. It is filed as in vivo. As for the experimental part:
A test for finding out the inhibition of lipid peroxidation by the inventive Lonicerae Flos extract, the inventive Lonicerae Flos fraction, or a compound isolated from the fraction (3,5-di-O-caffeoylquinic acid or 4,5-di-O-caffeoylquinic acid) was carried out. the esophagus mucous membrane extracted in Experimental Example 1 was taken out, and added in 1 ml of tris-hydrochloric acid buffer solution (pH 7.0), followed by ultrasonic grinding. After centrifugation (600×g, 4° C.) for 5 minutes, 0.3 ml of supernatant was added with 0.9 ml of trichloroacetic acid (8%). Then, after centrifugation (10,000×g, 4° C.) for 5 minutes, 1 ml of supernatant was added with 0.25 ml of TBA(1%), and then with 2 ml of n-butanol. Then, after centrifugation (3,000×g , 4° C.) for 5 minutes, on 1 ml of butanol fraction, the absorbency was measured at 532 nm. As a reference material, malonaldehyde bis-dimethyl acetal was used. The result was expressed as nmol/mg protein, and protein quantitative analysis was carried out by Bradford assay.

Series [2] relates to Sialic acid of esophagus mucous membrane. The series can be described thus: Amount of sialic acid in esophagus tissue. As to conditions: esophagus tissue of reflux rats; for Sialic acid: 10 mg/kg, normal group 125.2, control group 95.2; for content of sialic acid compared to that of a control group: doses as in Table 3. It is filed as in vivo, rat. As for the experimental part: (§1) On the Lonicerae Flos extract, the Lonicerae Flos fraction, or a compound isolated from the fraction (3,5-di-O-caffeoylquinic acid or 4,5-di-O-caffeoylquinic acid), having a therapeutic effect in a rat model of gastroesophageal reflux disease, the amounts of Hexosamine and Sialic acid constituting esophagus mucous membrane of esophagus tissue were measured.
Esophagus tissues of all test groups, obtained from <Experimental Example 1>, were immersed in ethanol, and then left in acetone for 2 days, and in ether for 1 day, followed by cleaning and drying. The test sample was weighed, added with 5 ml of 0.1N H2SO4 solution, and hydrolyzed by being heated at 80° C. for 1 hour. Then, the resultant product was cooled at room temperature, and filtered. 0.2 ml of filtrate was mixed with 0.1 ml of 0.2M periodate solution, and left at room temperature for 20 minutes. Then, the resultant solution was mixed with 1 ml of 10% arsenite solution until a yellowish brown color disappeared. 3 ml of 0.6% TBA solution was added thereto, followed by mixing. The resultant product was covered with a cap, and heated at 100° C. for 15 minutes, cooled, and left in a cool bath for 5 minutes, followed by cen- trifugation at 3,000 rpm for 10 minutes. A supernatant was collected, and its absorbency was measured at 549nm. From a calibration curve obtained by using N-acetylneuraminic acid, the content of Sialic acid was calculated.

The subject of series [3] is Hexosamine of esophagus mucous membrane. The series can be described thus: Amount of hexosamine in esophagus tissue. It is filed as in vivo, rat. The settings on record: esophagus tissue of reflux rats; for Hexosamine: 10 mg/kg, normal group 1101.3, control group 925.3; for content of hexosamine compared to that of a control group: doses as in Table 3. As for the experimental part: as §1
Esophagus tissues of all test groups, obtained from <Experimental Example 1>, were immersed in ethanol, and then left in acetone for 2 days, and in ether for 1 day, followed by cleaning and drying. The test sample was weighed, added with 5 ml of 4N HCl solution, and hydrolyzed by being heated at 100° C. for 9 hours. Then, the resultant product was cooled at room temperature, and filtered. 0.5 ml of filtrate was added with 0.5 ml of 4N NaOH solution for neutralization, and then added with 1 ml of acetylacetone solution, followed by shaking. Then, the resultant product was heated at 100° C. for 20 minutes, and cooled, and then added with 5 ml of isoamylalcohol, followed by shaking for 2 minutes. After centrifugation at 3,000 rpm for 10 minutes, 2 ml of supernatant was collected. The supernatant was added with 0.5 ml of a color agent, and left for 15 minutes, and then its absorbency was measured at 530 nm. From a calibration curve obtained by using Glucosamine, the content of hexosamine was calculated.

Series [4] deals with rat model of gastroesophageal reflux disease. The series can be described thus: Effect on esophagus lesion in rat model of gastroesophageal reflux disease. It is filed as in vivo. As to conditions: 10 mg/kg oral in 0.5% CMC, 1 h before reflux induction; esophagus examined 6 h after operation; SD male rats. From the text: In order to determine the therapeutic effect on acute/chronic gastroesophageal reflux disease by the inventive Lonicerae Flos fraction or the compound represented by Formula 1 or 2, the method for measuring the therapeutic effect on gastroesophageal reflux disease (Nakamura K et al; Jpn. J. Pharmacol., 32(3), 445-456, 1982: Okabe S, et al; Jpn. J. Pharmacol., 69(4), 317-323, 1995) was applied to the present experiments.
In order to determine the therapeutic effect of the inventive Lonicerae Flos extract, the inventive Lonicerae Flos fraction, or the compound represented by Formula 1 or 2 in a rat model of gastroesophageal reflux disease, Spraugue-Dawley(SD)-based male rats aged 7 weeks were fasted for 24 hours and supplied with water in a sufficient amount. The rats were weighed, and were orally administered with omeprazole (Sigma-Aldrich) as a control drug and with Lonicerae Flos extract/fraction as a test drug, which are suspended in a 0.5% CMC (Carboxymethyl cellulose) solution, one hour before induction of reflux. For reflux induction, the abdomen of the rat was opened, and a pylorus region between stomach and duodenum was ligated. Then, a stomach-esophagus sphincter between esophagus and stomach was injured by longitudinal incision of 1 cm so that gastric acid can be flowed backward due to abnormal relaxation of the sphincter. Also, a transition zone between forestomach and glandular portion was ligated by thread, and the abdomen was sutured by cotton thread. 6 hours after the completion of the operation, inhalation anesthesia was performed, and the esophagus was extracted. Then, the size of an esophagus lesion and the extent of esophagitis were observed. In Table 1, the esophagus lesion inhibition ratio (%) of a test group administered with the inventive test material, with respect to a control group, is noted.

Series [5] has as its system SPF SD-based female/male rats. As to the kind of experiment: Toxicity test of acute oral administration. It is filed as in vivo. The settings on record: single oral dose 1.0 g/kg or 2.0 g/kg in 0.5% CMC; 5 female and 5 male SD rats; autopsy after 7 days; safe up to 2.0 g/kg. On the procedure:
By applying the Lonicerae Flos extract of Example 1, fractions of Examples 4 and 5, and 3,5-di-O-caffeoylquinic acid and 4,5-di-O-caffeoylquinic acid from Example 6, to SPF (specific pathogen free) SD-based female/male rats aged 6 weeks, an acute toxicity test was carried out.
Female 5 rats and male 5 rats of each test group were orally administered with the test materials from Examples in a dose of 1.0 g/kg or 2.0 g/kg. The test materials were suspended in 0.5% CMC (Carboxymethyl cellulose) solution before the administration. When the test materials were administered, mortality, clinical symptoms, and weight changes of animals were observed. 7 days after the administration, through autopsy, a hematologic examination and a blood chemical test were carried out. Then, with the naked eye, it was observed if there was abnormality in abdominal cavity organs and thoracic cage organs. […] Also, through weight measurement, a blood test, a blood chemical test, and autopsy results, an abnormal change was not observed.

`O=C(/C=C/c1ccc(O)c(O)c1)OC1CC(O)(C(=O)O)CC(OC(=O)/C=C/c2ccc(O)c(O)c2)C1O` (centres unmarked) [3,5-di-CQA, 3,5-di-O-caffeoylquinic acid]: in the series on TNF-α, the inflammation inhibition ratio is 87.8% and the TNF-alpha turned out to be 145.3 pg/mg Tissue weight. In addition, in series [1], the “lipid peroxidation inhibiting ratio” value was 49.1%. Besides, in series [2], the Sialic acid came to 155.3 μg/100 mg dry tissue and the “content of sialic acid compared to that of a control group” value is listed as “significantly increased”. Moreover, in series [3], the Hexosamine is given as 1445.2 μg/100 mg dry tissue and the “content of hexosamine compared to that of a control group” value was “significantly increased”. Further, in series [4], the “esophagus lesion inhibition ratio with respect to control group” value (shortened to “esophagus lesion inhibition ratio”) was 90%. In series [5], the “acute oral toxicity (mortality, clinical symptoms, weight changes, blood tests, autopsy)” value is reported as “not showing toxicity”.
As to `O=C(/C=C/c1ccc(O)c(O)c1)O[C@H]1[C@H](O)C[C@](O)(C(=O)O)C[C@H]1OC(=O)/C=C/c1ccc(O)c(O)c1` [4,5-di-CQA, 4,5-di-O-caffeoylquinic acid], in the series on TNF-α, the inflammation inhibition ratio is on record as 85.5% and the TNF-alpha was 150.1 pg/mg Tissue weight. Also, in series [1], the “lipid peroxidation inhibiting ratio” value was determined as 50.2%. Besides, in series [2], the Sialic acid came out at 148.1 μg/100 mg dry tissue and the “content of sialic acid compared to that of a control group” value was “significantly increased”. For the same compound, in series [3], the Hexosamine is 1380.2 μg/100 mg dry tissue and the “content of hexosamine compared to that of a control group” value is listed as “significantly increased”. Also, the “esophagus lesion inhibition ratio” value in series [4] came to 81%.
`COc1ccc2[nH]c([S+]([O-])Cc3ncc(C)c(OC)c3C)nc2c1` (centres unmarked) [omeprazole, reference compound]: in the series on TNF-α, the inflammation inhibition ratio was 80.5% and the TNF-alpha is on record as 160.2 pg/mg Tissue weight. The “lipid peroxidation inhibiting ratio” value in series [1] was found to be 53.9%. Besides, the Sialic acid in series [2] came out at 132.2 μg/100 mg dry tissue. Moreover, in series [3], the Hexosamine worked out at 1176.3 μg/100 mg dry tissue. Further, the “esophagus lesion inhibition ratio” value in series [4] was found to be 83%.
